Measurements from US20060270640A1, “Method of preventing, medicating, and/or treating hypocalcemia of domestic mammal” (Mercian Corporation, priority 2004, published 2006).
Where “and” joins values, the source holds several entries; their conditions need not be identical. Equal entries are not always repeated.

Tests used:
[1] = Intravaginal 1,25-(OH)2D3 in raised cows: 1,25-(OH)2D3 concentration in plasma, RIA (Example 2); format: in vivo, cow
Protocol: (§1) Hereinafter, the present invention will further be described with reference to Examples and Comparative Example. However, the present invention is not intended to be limited to them by any means. In the examples described below, a 1,25-(OH)2D3 concentration in plasma was determined using a radioimmunoassay kit (1,25-(OH)2D RIA kit, Immunodiagnostic Systems Limited, UK). The Ca concentrations, inorganic phosphorus (iP) concentrations, and magnesium (Mg) concentrations in plasma and urine were determined by orthocresolphthalein complexone (O-CPC), molybdenum (Mo), and xylidyl blue methods, respectively. A creatinine concentration in urine was determined by a Jaffe method. Calcium (Ca), inorganic phosphorus (iP), and magnesium (Mg) concentrations in urine were indicated in the ratios relative to creatinine (Cre) (Ca/Cre, iP/Cre, and Mg/Cre, respectively).
(§2) For confirming the absorption in the vagina of 1,25-(OH)2D3 administered to the vaginal cavities of cows, biochemical changes of 1,25-(OH)2D3 and minerals in blood were observed after the intravaginal administration of 1,25-(OH)2D3 to cows.
(§3) Six Holstein cows (3 to 6 months olds, 97 to 118 kg in body weights) that were clinically healthy were raised and domesticated for at least 1 week in the same fence by providing them with feed (1.56 kg of grass, 0.55 kg of formula feed, and 1.44 kg of alfalfahey cube in dried forms) having a daily mineral intake of 21 g of Ca, 13 g of P, and 4 g of Mg that satisfies requirements stipulated by NRC (National Research Council) on a daily basis and free water drinking.
(§4) To each of five of the cows, 1,25-(OH)2D3 (crystal manufactured by Mercian Corporation dissolved in 99% ethanol to bring its concentration to 1 mg/mL and cryopreserved at −20° C. until just before use) was intravaginally administered at 1 μg per kg of body weight.
Intravaginal administration was performed using a 14-gauge, 64 mm-long cannula with an indwelling needle for injection (Surflo, Terumo Co. Ltd., Tokyo) and a plastic pump (Top Plastic Syringe, Top Surgical Taiwan Corporation, Taiwan). […]

[2] = Intravaginal 1,25-(OH)2D3 in raised cows: mineral (Ca, iP, Mg) concentrations in plasma (Example 2); format: in vivo, cow
Protocol: as §1, §2, §3, §4
Intravaginal administration was performed using a 14-gauge, 64 mm-long cannula with an indwelling needle for injection (Surflo, Terumo Co. Ltd., Tokyo) and a plastic pump (Top Plastic Syringe, Top Surgical Taiwan Corporation, Taiwan).
To the other cow, 3.0 mL of 99% ethanol was administered as a control.
A heparinized blood sample was collected from a jugular vein immediately before administration (0 hour) and at 2, 6, 12, 24, 48, 72, and 96 hours after administration.
The biochemical value of blood was indicated as a means±standard deviation. For observing the effect of the intravaginal administration of 1,25-(OH)2D3, repeated measures analysis of variance was used. When the effect was significant, a statistical test was conducted by the Dunnett's multiple comparison between the value at 0 hour and each value after administration. The significant difference was set to P<0.05.

[3] = in vivo; cited from earlier work
[4] = Dose-response test of 1,25-(OH)2D3, intravaginal vs intravenous: 1,25-(OH)2D3 in plasma and bioavailability (Example 3); format: in vivo, cow; conditions: for concentration at 0 h: read-out: 1,25-(OH)2D3 level in plasma
Protocol: as §1
The dose-response test of 1,25-(OH)2D3 by an intravaginal administration route was performed with five 3 to 9-year-old ovariectomized Holstein cows having body weights of 616 to 804 kg as test animals.
The cows were hitched to a partition after and provided with 5.3 kg of timothy hay, 0.18 kg of alfalfa hay, 0.71 kg of beet pulp pellet, and 1.7 kg of commercially-available grain mix on a daily basis. The cows were measured on a DM basis and freely provided with water. A daily mineral intake was set to 48.4 g for calcium, 20.2 g of inorganic phosphorus, and 12.7 g for magnesium, which sufficiently exceeded the NRC recommendation.
To the five cows, 1,25-(OH)2D3 was respectively administered at 0.125, 0.25, 0.5, and 1.0 μg/kg (by body weight) as an intravaginal dose level and 1.0 μg/kg (by body weight) as an intravenous injection dose level at an interval of 2 weeks or more according to a 5×5 Latin square design.
The 1,25-(OH)2D3 (manufactured by Mercian Corporation) used was in the form of crystalline powder, which was dissolved in 99% ethanol at 200 μg/mL and cryopreserved at −20° C. until use.
A drug composed of 5 mL of 20% ethanol solution containing 1,25-(OH)2D3 at 0.125, 0.25, 0.5, or 1.0 μg/kg (by body weight) was administered to a vaginal lumen using a Split Universal Sheath (IMV Int. CO., France) by a rectovaginal cavity method. The vulva was then bonded with an adhesive in order to prevent the 1,25-(OH)2D3 solution from being unintentionally excreted from the vaginal lumen. Intravenous administration was performed using a cannula (14-ga cannula for animals, manufactured by Nipro Medical Industries Ltd.) mounted in advance for the collection of a blood sample.
A heparinized blood sample was collected through the cannula immediately before the administration of 1,25-(OH)2D3 (0 hour) and at 2, 4, 6, 12, 24, 48, 72, 96, and 120 hours after administration.
Next, the blood was immediately centrifuged, and 1,25-(OH)2D3, calcium, inorganic phosphorus, and magnesium concentrations in plasma were determined.
It is noted that the bioavailability was determined by comparing an area under the plasma concentration-time curve (AUC) between the cow to which 1,25-(OH)2D3 was intravaginally administered at 1.0 μg/kg (by body weight) and the cow to which the same amount of 1,25-(OH)2D3 was intravenously administered, and a AUC ratio between intravaginal administration and intravenous administration was indicated by percentage.

[5] = oral administration, high dose; cited from earlier work
[6] = 0 hour, intravaginal 1 μg/kg, n=5

For `C=C1/C(=C\C=C2/CCC[C@]3(C)[C@@H]([C@H](C)CCCC(C)(C)O)CC[C@@H]23)C[C@@H](O)C[C@@H]1O` [1,25-(OH)2D3, 1,25-dihydroxyvitamin D3], the concentration at 6 h ([1]; female, Holstein, bovine, plasma, other: intravaginal, 6 hours after intravaginal 1 μg/kg, n=5, p<0.01 vs 0 hour) was 1970 ± 1140 pg/mL, the concentration at 0 h ([1]; female, Holstein, bovine, plasma, other: intravaginal, before administration (0 hour), intravaginal 1 μg/kg, n=5 raised cows, mean±SD) was 88.3 ± 20.3 pg/mL and the “absorption from the vaginal wall of a cow” value ([1]; intravaginal 1 μg/kg, sudden rise in plasma at 2 hours) was “confirmed”. For the same compound, the Mg in plasma [2, 6] was 2.1 ± 0.1 mg/dL, the iP in plasma [2, 6] was 7.3 ± 0.5 mg/dL and the iP in plasma ([2]; 6 hours after intravaginal 1 μg/kg, P<0.05 vs 0 hour) was 8.1 ± 0.8 mg/dL. The iP in plasma ([2]; 24 hours (start of 24 to 96 hours) after intravaginal 1 μg/kg, P<0.01) was 9.1 ± 0.7 mg/dL, the Mg in plasma ([2]; 24 hours after intravaginal 1 μg/kg, P<0.01 vs 0 hour) was 1.8 ± 0.1 mg/dL and the “Ca concentration in plasma, maximum value” ([2]; 24 hours after intravaginal 1 μg/kg, n=5, significantly (P<0.01) high at 12 to 72 hours) was 11.96 ± 0.7 mg/dL. For the same compound, the Mg in plasma ([2]; 48 hours after intravaginal 1 μg/kg, P<0.01 vs 0 hour) was 1.8 ± 0.1 mg/dL, the iP in plasma ([2]; 96 hours (end of 24 to 96 hours) after intravaginal 1 μg/kg, P<0.01) was 8.6 ± 0.6 mg/dL and the “Ca concentration in plasma” value ([2]; before administration, intravaginal 1 μg/kg, n=5) was 10.4 ± 0.4 mg/dL. For the same compound, the “bioavailability of 1,25-(OH)2D3” value [3] was 62% and 67%, the “1,25-(OH)2D3 level in plasma, peak” value ([4]; 2 hours after intravaginal 0.125 μg/kg) was 2219.3 ± 812.0 pg/mL and the “1,25-(OH)2D3 level in plasma, peak” value ([4]; 2 hours after intravaginal 0.25 μg/kg) was 3448.7 ± 737.9 pg/mL. For the same compound, the “1,25-(OH)2D3 level in plasma, peak” value ([4]; 2 hours after intravaginal 0.5 μg/kg) was 6388.5 ± 1127.4 pg/mL, the “1,25-(OH)2D3 level in plasma, peak” value ([4]; 2 hours after intravaginal 1.0 μg/kg) was 12315.7 ± 2288.3 pg/mL and the bioavailability ([4]; female, Holstein, bovine, plasma, other: intravaginal, 1 μg/kg, intravaginal vs intravenous, ovariectomized cows, read-out: bioavailability, share of 1,25-(OH)2D3 administered to the vaginal lumen entering the circulatory system) was ~93%. It also gave a concentration at 0 h ([4]; female, Holstein, bovine, plasma, other: intravaginal, intravaginal 0.125 μg/kg, ovariectomized cows) of 7.4 ± 5.3 pg/mL, a concentration at 0 h ([4]; female, Holstein, bovine, plasma, other: intravaginal, intravaginal 0.25 μg/kg) of 6.5 ± 1.3 pg/mL and a concentration at 0 h ([4]; female, Holstein, bovine, plasma, other: intravaginal, intravaginal 0.5 μg/kg) of 8.7 ± 5.6 pg/mL. For the same compound, the concentration at 0 h ([4]; female, Holstein, bovine, plasma, other: intravaginal, intravaginal 1.0 μg/kg) was 6.6 ± 1.6 pg/mL, the “individual bioavailability (AUC ratio intravaginal/intravenous)” value ([4]; intravaginal 1.0 μg/kg vs intravenous 1.0 μg/kg, one value per each of the five cows) was 71.1% and 124.2% and 113.3% and 90.0% and 66.5% and the “time of peak 1,25-(OH)2D3 level in plasma after administration” value ([4]; intravaginal 0.125, 0.25, 0.5 and 1.0 μg/kg) was 2 h. For the same compound, the “dose dependence of absorption from the vaginal wall” value ([4]; intravaginal, four doses 0.125-1.0 μg/kg) was “absorbed from the vaginal wall proportionately with a dose” and the “proportional rise in the AUC in serum with an increase in a dose” value [5] was “not observed”.
